# Laboratory results: PMC9414862, “In Vitro and In Silico Potential Inhibitory Effects of New Biflavonoids from Ochna rhizomatosa on HIV-1 Integrase and Plasmodium falciparum” (Pharmaceutics, 2022)
# Like-named read-outs stand apart in the source and are kept apart here.
# Tests used:
# [1] = test system: Plasmodium falciparum strain NF54 (chloroquine-sensitive), erythrocytic stages; assay: Antiplasmodial 3H-hypoxanthine incorporation assay; type: cell-based; settings: for IC50: Plasmodium falciparum
# Procedure: The assessment of antiplasmodial activity in vitro was evaluated against the erythrocytic stages of chloroquine-sensitive Plasmodium falciparum strain NF54 using a ^3H-hypoxanthine incorporation assay previously described, of which the […] NF54 strain originated from South Africa, and the standard drug chloroquine was obtained from Sigma-Aldrich (St. Louis, MO, USA). Compounds were dissolved in DMSO at 10 μg/mL and added to parasite cultures incubated in RPMI 1640 medium without hypoxanthine, supplemented with HEPES (5.94 g/L), NaHCO3 (2.1 g/L), neomycin (100 U/mL), Albumax, and washed human red cells A^+ at 2.5% hematocrit (0.3% parasitemia). Serial sample dilutions of […] dilution steps covering a range from 100 to 0.002 μg/mL were prepared. The 96-well plates were incubated in a humidified atmosphere at 37 °C; 4% CO2; 3% O2 and 93% N2. After 48 h, 50 μL of ^3H-hypoxanthine (0.5 μCi) was added to each well.
# [2] = biological target: T1, HIV-1 integrase (purified recombinant HIV-1 subtype C IN) (Human immunodeficiency virus type 1 group M subtype C, UniProt Q75002); assay: HIV-1 Integrase strand transfer inhibition assay; type: biochemical
# T1 construct: Recombinant HIV-1 subtype CIN was assembled on to the pre-processed donor DNA
# Procedure: The HIV-1 Integrase strand transfer inhibition assay was adapted from previously described methods. […] Following incubation at room temperature for 40 min and a stringent wash step, 5 µg/mL purified recombinant HIV-1 subtype CIN in integrase buffer 1 ([…] to ethanol, 50 µg/mL BSA, pH 7.5) was added to individual wells. […] Recombinant HIV-1 subtype CIN was assembled on to the pre-processed donor DNA through incubation for 45 min at room temperature. Strand transfer reaction was initiated through the addition of 10 µM (final concentration) double-stranded FITC-labelled target DNA (5′-[…]/36-FAM/-3′) annealed to (5′-[…]-/36-FAM/-3′) in integrase buffer 2 (same as buffer 1, except 25 µM MnCl2 was replaced with 2.5 µM MgCl2). After an incubation period of 60 min at 37 °C, the plates were washed using PBS containing 0.05% Tween 20 and 0.01% BSA, followed by the addition of peroxidase-conjugated sheep anti-FITC antibody (Thermo Scientific, Waltham, MA, USA) diluted 1:1000 in the same PBS buffer. Finally, the plates were washed and peroxidase substrate (Sure Blue Reserve™, KPL, Gaithersburg, MD, USA) was added to allow for detection at 620 nm using a Synergy MX (BioTek®) plate reader. Absorbance values were converted to % enzyme activity relative to the readings obtained from the control wells (enzyme without inhibitor).
# [3] = chloroquine-sensitive P. falciparum NF54, mean ± SD, '-' in Table 3 = no activity, read-out: NF54: IC50 (antiplasmodial activity)
# [4] = chloroquine-sensitive P. falciparum NF54, mean ± SD, '-' in Table 3 = no activity
# [5] = mean ± SD; '-' in Table 2 = no inhibition detected; read-out: Assembly IC50 (anti-HIV-1 integrase activity)
# [6] = mean ± SD; '-' in Table 2 = no inhibition detected
# T1 sequence (Q75002 1152-1439): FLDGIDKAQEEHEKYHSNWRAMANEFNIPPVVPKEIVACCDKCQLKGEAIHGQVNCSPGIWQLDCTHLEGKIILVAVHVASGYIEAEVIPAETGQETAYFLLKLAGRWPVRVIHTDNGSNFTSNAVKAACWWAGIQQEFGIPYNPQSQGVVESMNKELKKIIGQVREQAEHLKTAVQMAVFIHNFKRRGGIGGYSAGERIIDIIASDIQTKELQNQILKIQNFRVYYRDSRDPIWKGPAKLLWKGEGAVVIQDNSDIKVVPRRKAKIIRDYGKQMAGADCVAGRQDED
"IC50 ([1]; NF54, read-out: NF54: IC50 (antiplasmodial activity))",SMILES,"IC50 [1, 3]",IC50 ([2]; read-out: Assembly IC50 (anti-HIV-1 integrase activity)),"NF54: IC50 (antiplasmodial activity) [1, 4]","IC50 [2, 5]","Assembly IC50 (anti-HIV-1 integrase activity) [2, 6]",IC50 ([2]; read-out: Assembly IC50 (anti-HIV-1 integrase activity); mean ± SD; '-' in Table 2 = no inhibition detected)
–,"C[C@H]1[C@H](OC(=O)CCC(=O)O)O[C@@H]2O[C@@]3(C)CC[C@H]4[C@H](C)CC[C@@H]1[C@@]24OO3 [Artesumate, reference compound]",0.002 µM,–,–,–,–,–
0.006 ± 0.002 µM,"CCN(CC)CCCC(C)Nc1ccnc2cc(Cl)ccc12 (centres unmarked) [Chloroquine, reference compound]",–,–,–,–,–,–
–,O=C(c1ccc(O)cc1O)[C@@H](c1coc2cc(O)ccc2c1=O)C(c1ccc(O)cc1)c1ccc(O)cc1 [Compound 1],> 190 µM,0.047 ± 0.021 µM,no activity,–,–,–
–,"COc1ccc(C(c2ccc(OC)cc2)[C@@H](C(=O)c2ccc(OC)cc2O)c2coc3cc(OC)ccc3c2=O)cc1 [Compound 2, (R)-3-(1-(2′-hydroxy-4′-methoxyphenyl)-3,3-bis(4″,4‴-dimethoxyphenyl)-1-oxopropan-2-yl)-4-methoxychromenone]",4.6 ± 6.09 µM,–,–,> 20 µM,–,–
–,"COc1ccc(C(c2ccc(O)cc2)[C@@H](C(=O)c2ccc(O)cc2O)c2coc3cc(OC)ccc3c2=O)cc1 (stereo partly drawn) [Compound 3, (R)-3-(1-(2′,4′-dihydroxyphenyl)-3,3-bis(4″-hydroxy-4‴-methoxyphenyl)-1-oxopropan-2-yl)-4 methoxychromenone]",7.86 ± 5.12 µM,–,–,–,no inhibition detected,> 20 µM
–,"COc1ccc(C(c2ccc(O)cc2)[C@@H](C(=O)c2ccc(O)cc2O)c2coc3cc(O)ccc3c2=O)cc1 (some centres unmarked) [Compound 4, schweinfurthianone A]",8.2 ± 0.93 µM,–,–,> 20 µM,no inhibition detected,–
–,"COc1ccc(C(c2ccc(O)cc2)[C@@H](C(=O)c2ccc(OC)cc2O)c2coc3cc(OC)ccc3c2=O)cc1 (some centres unmarked) [Compound 5, shweinfurthianone B]",5.11 ± 13.7 µM,–,–,> 20 µM,no inhibition detected,–
–,"O=C(/C=C/c1ccc(O)cc1)c1c(O)cc(O)c2c(C(=O)c3ccc(O)cc3O)c(-c3ccc(O)cc3)oc12 [Compound 6, calodenine B]",> 190 µM,–,no activity,> 20 µM,no inhibition detected,–
–,"COc1cc(-c2coc3cc(O)cc(OC)c3c2=O)ccc1O [Compound 7, 4′,7-dihydroxy-3′,5-dimethoxyisoflavone]",> 190 µM,–,no activity,> 20 µM,–,–
